Source: ChEMBL document CHEMBL1201862, “PubChem BioAssay data set” (2004)
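48-hour exposure; five concentrations; linearly interpolated endpoints. The concentration for 50% growth inhibition is given as GI50.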 Activity calls are given as the source filed them. Rule as the data show it: active = GI50 up to about 1.1 µM and inactive = higher.

Legend:
Experiment in all cases: DTP human tumour cell line panel, 48 h
UO-31 = system: UO-31
HL-60 = system: HL-60
SNB-19 = system: SNB-19
SK-MEL-2 = system: SK-MEL-2
SN12C = system: SN12C
SK-OV-3 = system: SK-OV-3
A549 = system: A549
RPMI-8226 = system: RPMI-8226
DMS-273 = system: DMS-273
M14 = system: M14
TK-10 = system: TK-10
HT-29 = system: HT-29
NCI-H522 = system: NCI-H522
OVCAR-8 = system: OVCAR-8
786-0 = system: 786-0
HOP-62 = system: HOP-62
OVCAR-5 = system: OVCAR-5

SMILES	GI50 (UO-31)	GI50 (HL-60)	GI50 (SNB-19)	GI50 (SK-MEL-2)	GI50 (SN12C)	GI50 (SK-OV-3)	GI50 (A549)	GI50 (RPMI-8226)	GI50 (DMS-273)	GI50 (M14)	GI50 (TK-10)	GI50 (HT-29)	GI50 (NCI-H522)	GI50 (OVCAR-8)	GI50 (786-0)	GI50 (HOP-62)	GI50 (OVCAR-5)
Cc1ccccc1NC(=O)c1cc2cc(/N=N/c3ccccc3C(=O)O)ccc2oc1=O	20.6 µM (inactive)	19.5 µM (inactive)	> 10 µM (inactive)	22.8 µM (inactive)	18.6 µM (inactive)	28.2 µM (inactive)	33.4 µM (inactive)	15.9 µM (inactive)	21 µM (inactive)	16.7 µM (inactive)	48.2 µM (inactive)	15.2 µM (inactive)	12.3 µM (inactive)	29.6 µM (inactive)	27.1 µM (inactive)	21.4 µM (inactive)	–
CCCCOC(=O)NC(=O)c1cn(C2CCCCC2)c(=O)[nH]c1=O	21.3 µM (inactive)	> 100 µM (inactive)	26.5 µM (inactive)	38 µM (inactive)	> 100 µM (inactive)	20.9 µM (inactive)	38.5 µM (inactive)	60.8 µM (inactive)	> 100 µM (inactive)	50.7 µM (inactive)	46.9 µM (inactive)	59.4 µM (inactive)	26.9 µM (inactive)	42.9 µM (inactive)	18.6 µM (inactive)	25.3 µM (inactive)	> 100 µM (inactive)
COc1ccccc1-n1c(N)c2c(C)c(-c3ccccc3)[nH]c2nc1=S	> 100 µM (inactive)	> 100 µM (inactive)	> 100 µM (inactive)	> 100 µM (inactive)	> 100 µM (inactive)	–	5.74 µM (inactive)	50.2 µM (inactive)	> 100 µM (inactive)	> 100 µM (inactive)	> 100 µM (inactive)	–	> 100 µM (inactive)	> 100 µM (inactive)	> 100 µM (inactive)	> 100 µM (inactive)	> 100 µM (inactive)
COc1ccc(OC2(c3cc(OC)ccc3OC)OC(=O)c3ccccc32)cc1 (stereo not given)	> 100 µM (inactive)	> 100 µM (inactive)	> 100 µM (inactive)	> 100 µM (inactive)	> 100 µM (inactive)	> 100 µM (inactive)	> 100 µM (inactive)	> 100 µM (inactive)	> 100 µM (inactive)	> 100 µM (inactive)	> 100 µM (inactive)	> 100 µM (inactive)	> 100 µM (inactive)	> 100 µM (inactive)	> 100 µM (inactive)	> 100 µM (inactive)	> 100 µM (inactive)
CCOC(OC1=C(C#N)CCCC1)C(C)[Se]c1ccccc1 (stereo not given)	43.6 µM (inactive)	17.3 µM (inactive)	54.5 µM (inactive)	> 100 µM (inactive)	25.2 µM (inactive)	> 100 µM (inactive)	84.3 µM (inactive)	28.3 µM (inactive)	16.3 µM (inactive)	28.9 µM (inactive)	> 100 µM (inactive)	52.6 µM (inactive)	16 µM (inactive)	24.3 µM (inactive)	15.5 µM (inactive)	78.3 µM (inactive)	> 100 µM (inactive)
CCc1cccc(C)c1NC(=O)CC1C(=O)Nc2ccccc2[S+]1[O-] (stereo not given)	98.2 µM (inactive)	28.4 µM (inactive)	48.4 µM (inactive)	43.5 µM (inactive)	50 µM (inactive)	–	39.1 µM (inactive)	33 µM (inactive)	42.2 µM (inactive)	31.2 µM (inactive)	> 100 µM (inactive)	33.4 µM (inactive)	31.1 µM (inactive)	46 µM (inactive)	47.5 µM (inactive)	71.4 µM (inactive)	> 100 µM (inactive)
CC1=C(C(=O)CC(=O)C(=O)NC2C3CC4CC(C3)CC2C4)Sc2ccccc2N1 (stereo not given)	> 60.3 µM (inactive)	> 100 µM (inactive)	> 100 µM (inactive)	> 100 µM (inactive)	> 100 µM (inactive)	> 31.6 µM (inactive)	> 100 µM (inactive)	74.6 µM (inactive)	> 100 µM (inactive)	> 100 µM (inactive)	> 100 µM (inactive)	> 100 µM (inactive)	97.5 µM (inactive)	> 100 µM (inactive)	> 100 µM (inactive)	> 100 µM (inactive)	> 100 µM (inactive)
Cc1ccc(NC(=O)CC2C(=O)Nc3ccccc3[S+]2[O-])c(C)c1 (stereo not given)	19.3 µM (inactive)	2.86 µM (inactive)	11.7 µM (inactive)	9.35 µM (inactive)	30.5 µM (inactive)	17.6 µM (inactive)	16.1 µM (inactive)	12.1 µM (inactive)	6.15 µM (inactive)	6.78 µM (inactive)	22.4 µM (inactive)	4.35 µM (inactive)	6.89 µM (inactive)	16.9 µM (inactive)	15.1 µM (inactive)	16.4 µM (inactive)	53.7 µM (inactive)
CNc1nnnn1C1OC(CO)C(O)C1O (stereo not given)	> 100 µM (inactive)	–	–	> 100 µM (inactive)	> 100 µM (inactive)	> 100 µM (inactive)	> 100 µM (inactive)	> 100 µM (inactive)	> 100 µM (inactive)	> 100 µM (inactive)	> 100 µM (inactive)	> 100 µM (inactive)	> 100 µM (inactive)	> 100 µM (inactive)	> 100 µM (inactive)	> 100 µM (inactive)	> 100 µM (inactive)
Cc1nc2c(n1Cc1ccc(Cl)cc1)C(=O)c1ccccc1C2=O	> 75 µM (inactive)	4.36 µM (inactive)	> 75 µM (inactive)	> 75 µM (inactive)	> 75 µM (inactive)	> 75 µM (inactive)	17.4 µM (inactive)	–	2.62 µM (inactive)	> 75 µM (inactive)	> 75 µM (inactive)	4.08 µM (inactive)	5.52 µM (inactive)	8.99 µM (inactive)	5.68 µM (inactive)	20.8 µM (inactive)	–
Cc1noc2cccc(OCc3ccccc3)c12	15 µM (inactive)	17.3 µM (inactive)	91 µM (inactive)	23.8 µM (inactive)	> 100 µM (inactive)	> 100 µM (inactive)	44.1 µM (inactive)	30.7 µM (inactive)	52 µM (inactive)	92.5 µM (inactive)	47 µM (inactive)	37.2 µM (inactive)	13.2 µM (inactive)	67.1 µM (inactive)	99.3 µM (inactive)	> 100 µM (inactive)	25.6 µM (inactive)
Cn1ccnc1Cn1cc(-c2cccc(-c3cn[nH]c3)c2)cn1	19.2 µM (inactive)	> 100 µM (inactive)	> 100 µM (inactive)	> 100 µM (inactive)	69.7 µM (inactive)	0.753 µM (active)	39.6 µM (inactive)	> 100 µM (inactive)	> 100 µM (inactive)	> 100 µM (inactive)	35.5 µM (inactive)	–	22.6 µM (inactive)	> 100 µM (inactive)	> 100 µM (inactive)	> 100 µM (inactive)	–
O=[N+]([O-])c1ccc2nc(/C(=N/Nc3ccccc3)C(O)c3ccc(Cl)cc3Cl)c(O)nc2c1 (stereo not given)	78.9 µM (inactive)	21 µM (inactive)	–	> 100 µM (inactive)	> 100 µM (inactive)	> 100 µM (inactive)	> 100 µM (inactive)	52.4 µM (inactive)	39 µM (inactive)	> 100 µM (inactive)	> 100 µM (inactive)	> 100 µM (inactive)	15.9 µM (inactive)	> 100 µM (inactive)	> 100 µM (inactive)	> 100 µM (inactive)	> 100 µM (inactive)
COc1cc2c(cc1O)CN1CCC23C=C[C@@H](O)CC13 (stereo not given in full)	> 100 µM (inactive)	15.2 µM (inactive)	55.6 µM (inactive)	44.8 µM (inactive)	46.2 µM (inactive)	> 100 µM (inactive)	75.2 µM (inactive)	> 100 µM (inactive)	57.4 µM (inactive)	41 µM (inactive)	> 100 µM (inactive)	47.5 µM (inactive)	52.4 µM (inactive)	38.1 µM (inactive)	76.4 µM (inactive)	> 100 µM (inactive)	> 100 µM (inactive)
CC(C)=CC(=O)N(C)C1C2CN3CCC(O2)C13 (stereo not given)	> 100 µM (inactive)	> 100 µM (inactive)	> 100 µM (inactive)	> 100 µM (inactive)	> 100 µM (inactive)	> 100 µM (inactive)	> 100 µM (inactive)	–	> 100 µM (inactive)	> 100 µM (inactive)	> 100 µM (inactive)	> 100 µM (inactive)	> 100 µM (inactive)	> 100 µM (inactive)	> 100 µM (inactive)	> 100 µM (inactive)	> 100 µM (inactive)
O=C1C(c2ccc([N+](=O)[O-])cc2)=[N+]([O-])c2ccccc21	29.4 µM (inactive)	25.8 µM (inactive)	< 0.01 µM (active)	> 100 µM (inactive)	24.5 µM (inactive)	77.6 µM (inactive)	28 µM (inactive)	19 µM (inactive)	> 10 µM (inactive)	28.7 µM (inactive)	37.1 µM (inactive)	37.6 µM (inactive)	8.57 µM (inactive)	4.31 µM (inactive)	> 100 µM (inactive)	32.4 µM (inactive)	22.8 µM (inactive)
COC(=O)[C@H]1[C@H]2C[C@@H]3c4[nH]c5cc(OC)ccc5c4CCN3C[C@H]2C[C@@H](OC(=O)c2cc(OC)c(OC)c(OC)c2)[C@@H]1OC [RESERPINE]	15.1 µM (inactive)	14.2 µM (inactive)	16.2 µM (inactive)	19.3 µM (inactive)	–	–	18 µM (inactive)	6.9 µM (inactive)	20 µM (inactive)	15.4 µM (inactive)	17.5 µM (inactive)	12 µM (inactive)	17.9 µM (inactive)	19.6 µM (inactive)	14.2 µM (inactive)	12.6 µM (inactive)	38 µM (inactive)
